Source: US4244947A, “Carba decapeptide derivatives of [TYR^6 ]-somatostatin” (Ayerst McKenna and Harrison Inc., priority 1979, dated 1981)

How the values were obtained:
Type in all cases: in vivo, rat
[1] = tested on: glucose stimulated insulin secretion; test: glucose stimulated insulin secretion in anaesthetized fasted rats (plasma IRI); conditions: for IRI/ml, level observed at 30 min: absolute level, mean ± SEM
Procedure: (§1) The in vivo activity of the peptide of formula I is established by subjecting the peptide of formula I, in which X is (CH2)2 as a representative peptide of this invention, to the following standard test procedures.
(§2) Male Sprague Dawley rats (200±10 gm) body weight are used throughout these studies. They are maintained on an ad libitum diet of Purina Lab Chow and tap water until 24 hr before the studies are carried out. In the 24 hr period prior to use, the animals are fasted, but have unlimited access to tap water. All studies are conducted on sodium pentobarbital, sold under the trademark Nembutal, (Abbott Labs, Montreal), 60 mg/kg, ip, anaesthetized rats.
In studies where only insulin secretion is stimulated, glucose in 0.9% aqueous sodium chloride (British Drug House, Poole, England) is infused into an exposed jugular vein (100 mg/100 gm, in a volume of 2.0 ml for 30 min).
(§3) The peptide of formula I or somatostatin at various concentrations is infused simultaneously with the arginine or glucose stimulus, with the aid of a butterfly infusion set (23 guage) into the test animals. The effect of the vehicle on the release of the hormones is determined by infusing the saline diluent into selected rats.
(§4) The blood samples are discharged into chilled (4° C.) glass test tubes, containing aprotinin, sold under the trademark Trasylol, (Boehringer Ingelheim, Montreal), 500 KIU/ml whole blood, and plasma samples were collected after centrifugation (4° C., 3000 rpm for 30 min). The plasma samples were stored at -20° until assayed for immuno reactive glucagon (IRG) using antiserum 30 K and for immuno reactive insulin (IRI) by the methods described by W. Lippmann and M. Kobric, Horm. Metab. Res., 10, 280 (1978).
(§5) All results are expressed as the mean ±SEM of the response. Insulin and glucagon responses obtained in the arginine treated groups are derived by subtracting the basal hormone level from the level at 30 min, and are expressed in Tables I, II and III as ΔIRG (pg/ml) and ΔIRI/(μU/ml), for glucagon and insulin, respectively. Insulin results obtained from the glucose treated animals are in absolute hormone level at the termination of the infusion.
(§6) Wilcoxon's two sample test for unpaired observations, as described in "Statistical Methods", G. W. Snedecor and W. G. Cochran, ed., sixth edition, the Iowa State University Press, Ames, Iowa, 1973, pp 130 and 131, is used to determine the significance of the peptide+arginine or peptide+glucose versus the responses due to arginine or glucose alone. In selected instances, parallel dose-response line assay by analysis of variance, as described in "Statistical Method in Biological Assay", D. J. Finney, ed., second edition, Hafner Publishing Company, New York, 1964, is used to determine the relative potency of the 2 peptides in the bioassays. A p≤0.05 is deemed to be significant.

[2] = tested on: arginine stimulated insulin secretion; test: arginine stimulated insulin secretion in anaesthetized fasted rats (plasma IRI); conditions: for ΔIRI, mean incremental change of IRI from basal: infused with arginine, 30 min, mean ± SEM
Procedure: as §1, §2
(§7) In studies where both insulin and glucagon secretion are investigated, arginine (arginine-HCl in 0.9% aqueous sodium chloride, pH 7.4, 200 mg/100 gm rat, Nutritional Biochemicals, Cleveland) is infused into an exposed jugular vein (2.0 ml/30 min).
as §3, §4, §5, §6

[3] = tested on: arginine stimulated glucagon secretion; test: arginine stimulated glucagon secretion in anaesthetized fasted rats (plasma IRG); conditions: for ΔIRG, mean incremental change of plasma IRG from level at 0 min to level at 30 min: mean ± SEM
Procedure: as §1, §2, §7, §3, §4, §5, §6

## C[C@H](N)C(=O)NCC(=O)N[C@H]1CSSC[C@@H](C(=O)O)NC(=O)[C@H](CO)NC(=O)[C@H]([C@@H](C)O)NC(=O)[C@H](Cc2ccccc2)NC(=O)[C@H]([C@@H](C)O)NC(=O)[C@H](CCCCN)NC(=O)[C@H](Cc2c[nH]c3ccccc23)NC(=O)[C@H](Cc2ccccc2)NC(=O)[C@H](Cc2ccccc2)NC(=O)[C@H](CC(N)=O)NC(=O)[C@H](CCCCN)NC1=O [somatostatin]
[1]; Study A, 10 μg peptide/100 gm rat infused for 30 min with glucose
  IRI/ml, level observed at 30 min: 27.2 ± 4.7 μU/ml
[1]; Study A, 100 μg peptide/100 gm rat infused for 30 min with glucose
  IRI/ml, level observed at 30 min: 12.3 ± 3.9 μU/ml
[1]; Study B, 10 μg peptide/100 gm rat infused for 30 min with glucose
  IRI/ml, level observed at 30 min: 40.3 ± 7.7 μU/ml
[1]; Study B, 30 μg peptide/100 gm rat infused for 30 min with glucose
  IRI/ml, level observed at 30 min: 17.0 ± 7.5 μU/ml
[1]; Study B, 100 μg peptide/100 gm rat infused for 30 min with glucose
  IRI/ml, level observed at 30 min: 6.2 ± 1.9 μU/ml
[1]; glucose stimulated, summary of Table III
  relative potency in suppressing IRI secretion: significantly more potent than the peptide of formula I in which X is (CH2)2
[2]; Study A, 0.3 μg peptide/100 gm body weight rat
  ΔIRI, mean incremental change of IRI from basal: 73.8 ± 18.5 μU/ml
[2]; Study A, 1.0 μg peptide/100 gm body weight rat
  ΔIRI, mean incremental change of IRI from basal: 43.0 ± 22.6 μU/ml
[2]; Study A, 3.0 μg peptide/100 gm body weight rat
  ΔIRI, mean incremental change of IRI from basal: 40.0 ± 6.6 μU/ml
[2]; Study A, 30.0 μg peptide/100 gm body weight rat
  ΔIRI, mean incremental change of IRI from basal: 23.2 ± 12.5 μU/ml
[2]; Study B, 0.03 μg peptide/100 gm body weight rat
  ΔIRI, mean incremental change of IRI from basal: 88.3 ± 9.1 μU/ml
[2]; Study B, 0.3 μg peptide/100 gm body weight rat
  ΔIRI, mean incremental change of IRI from basal: 76.8 ± 5.2 μU/ml
[2]; Study B, 3.0 μg peptide/100 gm body weight rat
  ΔIRI, mean incremental change of IRI from basal: 32.2 ± 3.5 μU/ml
[2]; Study B, 30.0 μg peptide/100 gm body weight rat
  ΔIRI, mean incremental change of IRI from basal: 35.5 ± 7.8 μU/ml
[2]; Study C, 10.0 μg peptide/100 gm body weight rat
  ΔIRI, mean incremental change of IRI from basal: 52.8 ± 9.3 μU/ml
[2]; Study C, 100.0 μg peptide/100 gm body weight rat
  ΔIRI, mean incremental change of IRI from basal: 25.5 ± 8.1 μU/ml
[2]; arginine stimulated, summary of Table I
  suppression of IRI, comparison of effective dose: suppresses IRI at a lower dose than does the peptide of formula I in which X is (CH2)2
[3]; Study A, 0.3 μg peptide/100 gm rat infused for 30 min with arginine
  ΔIRG, mean incremental change of plasma IRG from level at 0 min to level at 30 min: 157.2 ± 35.9 pg/mL
[3]; Study A, 1.0 μg peptide/100 gm rat infused for 30 min with arginine
  ΔIRG, mean incremental change of plasma IRG from level at 0 min to level at 30 min: 72.7 ± 19.0 pg/mL
[3]; Study A, 3.0 μg peptide/100 gm rat infused for 30 min with arginine
  ΔIRG, mean incremental change of plasma IRG from level at 0 min to level at 30 min: 102.5 ± 25.8 pg/mL
[3]; Study A, 30.0 μg peptide/100 gm rat infused for 30 min with arginine
  ΔIRG, mean incremental change of plasma IRG from level at 0 min to level at 30 min: 90.2 ± 38.4 pg/mL
[3]; Study B, 0.03 μg peptide/100 gm rat infused for 30 min with arginine
  ΔIRG, mean incremental change of plasma IRG from level at 0 min to level at 30 min: 211.0 ± 23.1 pg/mL
[3]; Study B, 0.3 μg peptide/100 gm rat infused for 30 min with arginine
  ΔIRG, mean incremental change of plasma IRG from level at 0 min to level at 30 min: 149.2 ± 29.9 pg/mL
[3]; Study B, 3.0 μg peptide/100 gm rat infused for 30 min with arginine
  ΔIRG, mean incremental change of plasma IRG from level at 0 min to level at 30 min: 69.3 ± 22.2 pg/mL
[3]; Study B, 30.0 μg peptide/100 gm rat infused for 30 min with arginine
  ΔIRG, mean incremental change of plasma IRG from level at 0 min to level at 30 min: 69.7 ± 8.4 pg/mL
[3]; arginine stimulated, summary of Table II
  suppression of IRG secretion, comparison: suppresses the IRG secretion about equally
